Assays:
Experiment in all cases: relative viability (nuclei count vs DMSO), 5 days (fraction); higher = more cells survive
Vemurafenib + Olaparib = compound: CCCS(=O)(=O)Nc1ccc(F)c(C(=O)c2c[nH]c3ncc(-c4ccc(Cl)cc4)cc23)c1F [Vemurafenib] + O=C(c1cc(Cc2n[nH]c(=O)c3ccccc23)ccc1F)N1CCN(C(=O)C2CC2)CC1 [Olaparib] (partner 8 µM)
Procedure, shortened: (§1)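 Lung cancer cell lines in 1536-well plates were dosed by pin tool the day after seeding, either with one drug alone or with a fixed anchor-drug dose plus five library-drug doses (not always all listed) in √10 steps. After 5 days, cells were fixed and their nuclei stained in one step (final 0.05% Triton X-100, 1% formaldehyde, 1 ug/ml Hoechst), then counted on 4× images. Relative viability is the nuclei count in treated wells divided by that in vehicle wells. Values are medians of duplicate plates.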

Vemurafenib + Tozasertib = compound: CCCS(=O)(=O)Nc1ccc(F)c(C(=O)c2c[nH]c3ncc(-c4ccc(Cl)cc4)cc23)c1F [Vemurafenib] + Cc1cc(Nc2cc(N3CCN(C)CC3)nc(Sc3ccc(NC(=O)C4CC4)cc3)n2)n[nH]1 [Tozasertib] (partner 0.1 µM)
Procedure, shortened: as §1

Alpelisib + Phenformin = compound: Cc1nc(NC(=O)N2CCC[C@H]2C(N)=O)sc1-c1ccnc(C(C)(C)C(F)(F)F)c1 [Alpelisib] + N=C(N)NC(=N)NCCc1ccccc1 [Phenformin] (partner 250 µM)
Procedure, shortened: as §1

Alpelisib + AZD7762 = compound: Cc1nc(NC(=O)N2CCC[C@H]2C(N)=O)sc1-c1ccnc(C(C)(C)C(F)(F)F)c1 [Alpelisib] + NC(=O)Nc1cc(-c2cccc(F)c2)sc1C(=O)N[C@H]1CCCNC1 [AZD7762] (partner 0.2 µM)
Procedure, shortened: as §1

| Cell Line | relative viability (Vemurafenib + Olaparib; first compound 0.03162 µM) | relative viability (Vemurafenib + Olaparib; first compound 0.1 µM) | relative viability (Vemurafenib + Olaparib; first compound 0.3162 µM) | relative viability (Vemurafenib + Olaparib; first compound 1 µM) | relative viability (Vemurafenib + Tozasertib; first compound 0.1 µM) | relative viability (Vemurafenib + Tozasertib; first compound 1 µM) | relative viability (Alpelisib + Phenformin; first compound 0.04 µM) | relative viability (Alpelisib + Phenformin; first compound 0.1265 µM) | relative viability (Alpelisib + Phenformin; first compound 0.4 µM) | relative viability (Alpelisib + Phenformin; first compound 1.265 µM) | relative viability (Alpelisib + Phenformin; first compound 4 µM) | relative viability (Vemurafenib + Tozasertib; first compound 0.03162 µM) | relative viability (Alpelisib + AZD7762; first compound 0.04 µM) | relative viability (Alpelisib + AZD7762; first compound 0.1265 µM) | relative viability (Alpelisib + AZD7762; first compound 0.4 µM) | relative viability (Alpelisib + AZD7762; first compound 1.265 µM) | relative viability (Alpelisib + AZD7762; first compound 4 µM) | relative viability (Vemurafenib + Tozasertib; first compound 0.3162 µM) |
| --- | --- | --- | --- | --- | --- | --- | --- | --- | --- | --- | --- | --- | --- | --- | --- | --- | --- | --- |
| IA-LM | 0.67 | 0.818 | 0.78 | 0.721 |  |  |  |  |  |  |  |  |  |  |  |  |  |  |
| NCI-H1650 | 0.677 | 0.626 | 0.844 | 0.791 | 0.277 | 0.272 | 0.405 | 0.408 | 0.43 | 0.362 | 0.308 |  |  |  |  |  |  |  |
| NCI-H322M | 0.728 |  | 0.93 | 0.726 |  | 0.446 | 0.74 | 0.674 | 0.736 | 0.558 | 0.55 | 0.426 | 0.594 | 0.556 | 0.47 | 0.424 | 0.458 |  |
| SW 1573 | 0.435 | 0.414 | 0.577 | 0.531 | 0.192 | 0.26 | 0.306 | 0.335 | 0.272 | 0.217 | 0.257 | 0.162 |  |  |  |  |  | 0.193 |
| HCC-827 | 0.624 |  | 0.65 | 0.632 |  | 0.41 | 0.424 | 0.419 | 0.338 | 0.371 | 0.303 | 0.397 | 0.253 | 0.212 | 0.209 | 0.199 | 0.168 | 0.42 |
| LU99A | 0.245 | 0.259 |  | 0.264 | 0.256 | 0.264 | 0.883 | 0.843 | 0.856 | 0.709 | 0.657 | 0.245 | 0.335 | 0.361 | 0.408 | 0.365 | 0.398 | 0.316 |
| LK-2 | 0.618 | 0.633 | 0.644 | 0.417 | 0.177 | 0.155 | 0.4 | 0.233 | 0.213 | 0.226 | 0.161 | 0.158 | 0.402 | 0.253 | 0.442 | 0.209 | 0.123 | 0.187 |
| EMC-BAC-2 | 0.444 | 0.528 | 0.352 | 0.369 | 0.28 | 0.237 | 0.539 | 0.482 | 0.498 | 0.44 | 0.34 | 0.303 | 1.1 | 1.05 | 0.946 | 0.832 | 0.581 | 0.212 |
| NCI-H2342 | 0.401 | 0.429 | 0.608 | 0.354 | 0.478 | 0.417 | 0.606 | 0.587 | 0.559 | 0.519 | 0.439 | 0.477 | 0.477 | 0.421 | 0.506 | 0.497 | 0.426 | 0.629 |
| NCI-H460 | 0.44 | 0.408 |  | 0.39 | 0.28 | 0.156 | 0.484 | 0.526 | 0.554 | 0.447 | 0.142 | 0.389 | 0.542 | 0.638 | 0.746 | 0.513 | 0.404 |  |
| NCI-H441 | 0.512 | 0.597 | 0.556 | 0.536 | 0.561 | 0.591 | 0.955 | 0.749 | 0.832 | 0.469 | 0.45 | 0.708 | 1.28 | 1.14 | 1.35 | 1.22 | 1.07 | 0.476 |
| NCI-H661 | 0.686 | 0.752 | 0.769 | 0.709 | 0.334 | 0.358 | 0.285 | 0.281 | 0.253 | 0.245 | 0.262 | 0.325 |  |  |  |  |  | 0.396 |
| NCI-H727 | 0.748 | 0.774 | 0.726 | 0.51 | 0.584 | 0.775 | 0.533 | 0.555 | 0.498 | 0.412 | 0.215 | 0.506 | 0.472 | 0.567 | 0.625 | 0.673 | 0.555 | 0.808 |
| NCI-H1651 | 0.167 | 0.203 | 0.193 | 0.169 | 0.594 | 0.57 | 0.369 | 0.3 | 0.33 | 0.295 | 0.275 | 0.605 | 0.458 | 0.442 | 0.535 | 0.536 | 0.359 | 0.636 |
| NCI-H1355 | 0.722 | 0.671 | 0.828 | 0.74 | 0.559 | 0.435 | 0.421 | 0.404 | 0.438 | 0.433 | 0.332 | 0.545 | 0.792 | 0.78 | 0.704 | 0.636 | 0.553 | 0.56 |
| NCI-H1793 | 0.778 | 0.497 | 0.879 | 1.06 |  | 0.264 | 0.365 | 0.322 | 0.365 | 0.301 | 0.238 | 0.288 | 0.473 | 0.332 | 0.383 | 0.374 | 0.23 | 0.323 |
| NCI-H1666 | 0.715 | 0.77 | 0.769 | 0.782 | 0.549 | 0.579 | 0.557 | 0.602 | 0.576 | 0.591 | 0.564 | 0.575 | 0.902 | 0.762 | 1.03 | 0.865 | 0.711 | 0.801 |
| NCI-H838 | 0.746 | 0.764 | 0.697 | 0.821 | 0.293 | 0.285 | 0.523 | 0.507 | 0.549 | 0.41 | 0.355 | 0.233 | 0.916 | 0.946 | 1.02 | 0.775 | 0.86 |  |
| NCI-H1975 | 0.728 | 0.755 | 0.727 | 0.793 | 0.635 | 0.238 | 0.417 | 0.41 | 0.387 | 0.298 | 0.208 | 0.688 | 0.731 | 0.621 | 0.731 | 0.463 | 0.374 | 0.45 |
